Data on 1 compound can be found in patent publication US12221453B2, “Substituted pyrazolo[5′,1′:2,3]pyrimido[5,4-b][1,4]oxazines as TYK2 inhibitors” (TAKEDA PHARMACEUTICAL COMPANY LIMITED, priority 2018, dated 2025).

Structures are written as SMILES. Some results are limits rather than exact numbers.

Test [1] deals with human TYK2 (JH2domain-pseudokinase) (Homo sapiens (Human), UniProt P29597). Put plainly: TYK2 JH2 domain binding assay (KINOMEscan, DiscoveRx). Conditions: 11-point 3-fold dilution, top concentration 30,000 nM, duplicate; read-out: hTYK2_JH2_Binding (Kd; nM). The protocol: From these HEK 293 cells, extracts were prepared in M-PER extraction buffer (Pierce) in the presence of Protease Inhibitor Cocktail Complete (Roche) and Phosphatase Inhibitor Cocktail Set II (Merck) per manufacturers' instructions. The TYK2 (JH2domain-pseudokinase) fusion protein was labeled with a chimeric double-stranded DNA tag containing the NFkB binding site (5′-[…]-3′) fused to an amplicon for qPCR readout, which was added directly to the expression extract (the final concentration of DNA-tag in the binding reaction is 0.1 nM).
human TYK2 (JH2domain-pseudokinase), sequence (P29597 556-888): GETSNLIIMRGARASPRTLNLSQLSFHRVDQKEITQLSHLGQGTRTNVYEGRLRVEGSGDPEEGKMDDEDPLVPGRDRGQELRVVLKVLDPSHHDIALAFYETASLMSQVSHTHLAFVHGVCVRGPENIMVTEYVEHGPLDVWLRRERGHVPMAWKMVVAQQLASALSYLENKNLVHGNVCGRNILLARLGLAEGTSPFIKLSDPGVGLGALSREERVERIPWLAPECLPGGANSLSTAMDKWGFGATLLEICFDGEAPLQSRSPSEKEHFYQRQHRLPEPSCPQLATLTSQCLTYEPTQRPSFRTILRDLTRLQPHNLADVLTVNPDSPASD
The liganded beads were blocked with excess biotin and washed with blocking buffer (SeaBlock (Pierce), 1% BSA, 0.05% Tween 20, 1 mM DTT) to remove unbound ligand and to reduce nonspecific binding.
Extracts were loaded with DNA-tag and diluted into the binding reaction in a two step process. First extracts were diluted 1:100 in 1× binding buffer (PBS/0.05% Tween 20/10 mM DTT/0.1% BSA/2 μg/ml sonicated salmon sperm DNA) containing 10 nM DNA-tag. […] Kds were determined using an 11-point 3-fold compound dilution series with three DMSO control points. […]
Kds were determined using an 11-point 3-fold compound dilution series with three DMSO control points. […] The Kds were determined using a compound top concentration of 30,000 nM. […]
Binding constants (Kds) were calculated with a standard dose-response curve using the Hill equation: […]

Test [2] relates to IL-12 induced STAT4 phosphorylation mediated by TYK2/JAK2. Put plainly: IL-12 induced pSTAT4 in human PBMC. The test is classed as cell-based. The settings on record: 1 hr compound, 1.7 ng/mL IL-12 for 30 minutes. An outline of the steps: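 Thawed human PBMC were pre-incubated with compound for 1 hr at 37 °C (0.1% DMSO), then stimulated with 1.7 ng/mL IL-12 for 30 minutes. Phospho-STAT4 and total STAT4 were measured in cell lysates by MSD.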

As for `CNc1cc(-c2cn([C@H]3CO[C@@H](COC)C3)c3ncccc23)nc2c(C(=O)N[C@H]3CC[C@@H]3OC)cnn12` [I-1018, N-((1S,2S)-2-methoxycyclobutyl)-5-(1-(5-(methoxymethyl)tetrahydrofuran-3-yl)-1H-pyrrolo[2,3-b]pyridin-3-yl)-7-(methylamino)pyrazolo[1,5-a]pyrimidine-3-carboxamide], the Kd (in general, the equilibrium constant for the complex coming apart) in test [1] is less than 0.2 nM. Moreover, in test [2], the IC50 (in general, the midpoint of a concentration-inhibition curve) is less than 0.1 µM.
